B1: CCR5: printed CCR5, probably CCL5 (R&D System), the CCR5 ligand used as chemoattractant (protein, UniProt P13501 24-91, looked up)
C-C motif chemokine 5: SPYSSDTTPCCFAYIARPLPRAHIKEYFYTSGKCSNPAVVFVTRKNRQVCANPEKKWVREYINSLEMS

Columns and labels:
PEC lines = assay: Experimental metastasis assay: intracardiac injection of Luc2-Tomato-Red PEC lines, bioluminescence, X-ray and F-18-NaF imaging; type: in vivo, FVB mice
PEC-Src line = assay: Three-dimensional (Matrigel) invasion assay; type: cell-based, murine; conditions: 10 ug/ml osteopontin or 15 ng/ml CCL5 as chemoattractant in upper chamber, three days
Method: The three-dimensional invasion assay was performed as previously reported. […] The transwell was incubated at 37° C. overnight to allow the collagen to solidify. 30,000 cells were then seeded on the bottom of the transwell membrane and allowed to attach. Serum-free growth medium was placed into the bottom chamber, while 10 ug/ml osteopontin (R&D System), or 15 ng/ml CCL5 (R&D System), or 10% FBS was used as a chemo attractant in the medium of the upper chamber. The cells were then chemo attracted across the filter through the collagen above for three days. Cells were fixed in 4% formaldehyde, permeabilized with 0.2% Triton-X in PBS and then stained with […] propidium iodide (PI) for 2 h. Fluorescence was analyzed by confocal z sections (one section every […]) at 10× magnification from the bottom of the filter using a Zeiss LSM 510 Meta inverted confocal microscope at the Kimmel Cancer Center Bioimaging Facilit.
For the comparison to tissue, the in vivo tumor gene expression in the oncogene transformed PEC was compared with the expression in vivo in the dorsolateral ventral prostate of mice with the same strain. […] Upregulation of the receptor ligands CCL2, CCL7, and CCL8 was observed (2- to 3-fold). CCL7, CCL8 and CCL5 are ligands for CCR5, CCL8 and CCL5 for CCR1 (FIG. 16H). […]

[1] = Maraviroc 8 mg/kg oral vs control, FVB mice, 2 weeks after intracardiac injection of PEC lines, N=8 per group

| Molecule | reduction of bony metastasis (lower limb bony mass) (PEC lines; [1]) | reduction of total body metastatic burden (photon flux) (PEC lines; [1]) | effect on metastasis (result in words) (PEC lines; daily oral CCR5 antagonist, bony / spinal osteolytic metastasis in mice) | reduction of spine metastasis (PEC lines; daily oral treatment, F-18-NaF imaging correlated with X-ray, FVB mice) | Matrigel invasion of the PEC-Src line (result in words) (PEC-Src line) |
| --- | --- | --- | --- | --- | --- |
| Maraviroc | > 50% | > 50% | reduction in metastasis | > 90% | – |
| osteopontin [OPN] | – | – | – | – | enhanced PEC invasiveness into matrigel |
| B1 | – | – | – | – | enhanced PEC invasiveness into matrigel |
